# Assay results taken from patent EP3991729A1, “USE OF AMLEXANOX IN PREPARING ANTI-HEPATITIS VIRUS DRUG” (Marine Biomedical Research Institute Of Qingdao Co., Ltd., priority 2019, dated 2020).
# Columns and labels:
# [1] = system: hepatitis B virus; test: Mouse venous hypertension model (genotype B), HBsAg in peripheral blood by ELISA; assay type: in vivo, Wild-type mice (C57/B6)
# Description: . On the 9th day after infection, about 100µl/mouse of blood was harvested from the tail to separate serum, and the concentration of HBsAg in peripheral blood was detected by ELISA. The OD value at 450nm was measured on a microplate reader.
# . On the 9th day after infection, about 100µl of blood was harvested from each animal, serum was separated, and the concentration of HBsAg in peripheral blood was measured by ELISA.
# [2] = system: HepG2 cells; test: Cytotoxicity test, MTT assay; assay type: cell-based; details: Homo sapiens, HepG2, 72 h, read-out: Inhibition (%) Hep G2
# Description: (§1) […]. Various cells in the logarithmic growth phase were seeded in 96-well plates at 6,000 cells/well and cultured for 24h. […]. The dosage of DMSO in the solvent control group was based on the maximum dose of 0.1% used in the test group, with four duplicate wells for each concentration. Cells were treated with the drug for 72h and then added with 20µL 5 mg/mL MTT, cultured at 37°C for 4h, after added 100 µ L triple solution (10% SDS, 5% isobutanol, 12 mM hydrochloric acid), 96-well cell culture plate was placed in an incubator containing 5% CO2 at 37 ± 1°C overnight. OD value at 570nm was measured on a microplate reader.
# (§2) The inhibition rate of tumor cell growth was calculated according to the following formula: Inhibition rate(%) = [(OD570controlwell−OD570dosewell)/OD570controlwell] × 100. [formula]
# [3] = system: MCF7 cells; test: Cytotoxicity test, MTT assay; assay type: cell-based
# Description: as §1, §2
# [4] = system: 293 cells; test: Cytotoxicity test, MTT assay; assay type: cell-based; details: Homo sapiens, HEK293, 72 h, read-out: Inhibition (%) 293
# Description: as §1, §2
# [5] = system: THP-1 cells; test: Cytotoxicity test, MTT assay; assay type: cell-based; details: Homo sapiens, THP-1, 72 h, read-out: Inhibition (%) THP -1
# Description: as §1, §2
# [6] = system: HCT-116 cells; test: Cytotoxicity test, MTT assay; assay type: cell-based
# Description: as §1, §2
# [7] = system: Huh7 cells; test: Cytotoxicity test, MTT assay; assay type: cell-based
# Description: as §1, §2
# [8] = system: A549 cells; test: Cytotoxicity test, MTT assay; assay type: cell-based; details: Homo sapiens, A549, 72 h, read-out: Inhibition (%) A549
# Description: as §1, §2
# [9] = system: Hela cells; test: Cytotoxicity test, MTT assay; assay type: cell-based; details: Homo sapiens, 72 h, read-out: Inhibition (%) Hel a
# Description: as §1, §2
# [10] = system: MKN45 cells; test: Cytotoxicity test, MTT assay; assay type: cell-based
# Description: as §1, §2
# [11] = system: hepatitis B virus; test: HBV transgenic mouse model, serum HBsAg by ELISA; assay type: in vivo, male C57BL/6-HBV transgenic mice; details: 48 mg/kg intragastric once daily for 35 days, Figure 18
# Description: Ten male C57BL/6-HBV transgenic mice (provided by Beijing Vitalstar Biotechnology Co., Ltd.) aged six weeks were randomly divided into two groups (control group, n=5; administration group, n=5).
# Route of administration: Intragastric administration, 1mL sterile syringe was used for administration.
# Dosing frequency: The drug was administered once daily for 35 consecutive days, with free access to food and water.
# Dose-volume: 10 mL/kg. The dose-volume for each animal was determined based on the most recent body weight before administration.
# The serum was separated and diluted 5000 times with PBS, respectively. The ELISA kit detected the concentration of HBV surface antigen (HBsAg). The OD value at 450 nm was measured on a microplate reader.
# The inhibition rate was calculated according to the following formula: Inhibition rate = [(OD450controlwell−OD450dosewell)/OD450 control; well] × 100% [formula]
# [12] = system: alanine aminotransferase (ALT); test: Mouse venous hypertension model (genotype A), serum alanine aminotransferase (ALT) activity, colorimetric kit; details: 25-200 mg/day (converted adult dose), once a day oral gavage, Figure 16
# Description: Six-week-old male C57 mice were rapidly injected with 10µg/mouse of viral genomic DNA (genotype A) by tail vein injection in a short period. Viral infection was established using a venous hypertension model and randomly divided into groups. […] At the same time, a blank control was set up, and oral administration in uninfected mice was equivalent to the model group.
# On days 1, 3, and 7 of administration, an appropriate amount of blood was collected from the tail vein of mice in each group. On day 9, the remaining peripheral blood was collected after the mice were sacrificed. All blood samples were centrifuged to obtain serum, divided into two portions. One was used to detect the concentration of HBsAg by ELISA, and the other was used to detect the enzyme activity of alanine aminotransferase (ALT) by alanine aminotransferase kit (colorimetric method) (Nanjing Jiancheng Bioengineering Institute).
# [13] = Homo sapiens, MCF7, 72 h, read-out: Inhibition (%) MC F7
# [14] = Homo sapiens, HCT-116, 72 h, read-out: Inhibition (%) HCT-116
# [15] = Homo sapiens, Huh-7, 72 h, read-out: Inhibition (%) Hu h7
# [16] = Homo sapiens, MKN-45, 72 h, read-out: Inhibition (%) MKN 45
structure (smiles),measurement,setting,value
"CC(C)c1ccc2oc3nc(N)c(C(=O)O)cc3c(=O)c2c1 [amlexanox, Amlexanox]",concentration of HBsAg in peripheral blood,"[1]; 50 mg/kg/day oral gavage, 9th day after infection, Figure 3","reduced HBsAg levels in a mouse model of venous hypertension, and its effect is better than that of lamivudine"
same,"dose of significant effect (inhibition of hepatitis B virus, HBsAg)","[1]; oral gavage, 9th day after infection, Figure 7",10 to 50 mg/kg
same,"concentration of HBsAg in peripheral blood, dose-response relationship","[1]; oral gavage, daily dose as in Figure 7, 9th day after infection",its ability to inhibit the hepatitis B virus in the venous hypertension mouse model is enhanced
same,inhibition at 3.125 µM,[2],0%
same,inhibition at 6.25 µM,[2],0%
same,inhibition at 12.5 µM,[2],0%
same,inhibition at 25 µM,[2],0%
same,inhibition at 50 µM,[2],0%
same,inhibition at 100 µM,[2],4.8%
same,inhibition at 3.125 µM,[3]; [13],1.03%
same,inhibition at 6.25 µM,[3]; [13],0.86%
same,inhibition at 12.5 µM,[3]; [13],1.22%
same,inhibition at 25 µM,[3]; [13],3.8%
same,inhibition at 50 µM,[3]; [13],16.4%
same,inhibition at 100 µM,[3]; [13],43.5%
same,cytotoxicity,"[3]; MCF7, 100 µM, 72h",some cytotoxicity
same,inhibition at 3.125 µM,[4],0%
same,inhibition at 6.25 µM,[4],0%
same,inhibition at 12.5 µM,[4],0%
same,inhibition at 25 µM,[4],0%
same,inhibition at 50 µM,[4],0%
same,inhibition at 100 µM,[4],11.3%
same,inhibition at 3.125 µM,[5],0%
same,inhibition at 6.25 µM,[5],0%
same,inhibition at 12.5 µM,[5],0%
same,inhibition at 25 µM,[5],0%
same,inhibition at 50 µM,[5],0%
same,inhibition at 100 µM,[5],7.44%
same,cytotoxicity,"[6]; HCT-116, 100 µM, 72h",some cytotoxicity
same,inhibition at 3.125 µM,[6]; [14],0%
same,inhibition at 6.25 µM,[6]; [14],0%
same,inhibition at 12.5 µM,[6]; [14],0.11%
same,inhibition at 25 µM,[6]; [14],1.17%
same,inhibition at 50 µM,[6]; [14],6.41%
same,inhibition at 100 µM,[6]; [14],31.1%
same,inhibition at 3.125 µM,[7]; [15],0%
same,inhibition at 6.25 µM,[7]; [15],7.28%
same,inhibition at 12.5 µM,[7]; [15],15%
same,inhibition at 25 µM,[7]; [15],18.1%
same,inhibition at 50 µM,[7]; [15],26.2%
same,inhibition at 100 µM,[7]; [15],35.2%
same,cytotoxicity,"[7]; Huh7, 100 µM, 72h",some cytotoxicity
same,inhibition at 3.125 µM,[8],3.55%
same,inhibition at 6.25 µM,[8],1.31%
same,inhibition at 12.5 µM,[8],0.65%
same,inhibition at 25 µM,[8],0%
same,inhibition at 50 µM,[8],1.08%
same,inhibition at 100 µM,[8],4.54%
same,inhibition at 3.125 µM,[9],3.08%
same,inhibition at 6.25 µM,[9],2.48%
same,inhibition at 12.5 µM,[9],1.7%
same,inhibition at 25 µM,[9],0.79%
same,inhibition at 50 µM,[9],1.89%
same,inhibition at 100 µM,[9],6.15%
same,inhibition at 3.125 µM,[10]; [16],0%
same,inhibition at 6.25 µM,[10]; [16],3.61%
same,inhibition at 12.5 µM,[10]; [16],4.9%
same,inhibition at 25 µM,[10]; [16],9.22%
same,inhibition at 50 µM,[10]; [16],13.9%
same,inhibition at 100 µM,[10]; [16],30.9%
same,cytotoxicity,"[10]; MKN45, 100 µM, 72h",some cytotoxicity
same,HBV surface antigen (HBsAg) in serum,[11],could inhibit HBsAg level in transgenic mice
same,enzyme activity of alanine aminotransferase (ALT) in serum,[12],can effectively reduce alanine aminotransferase activity
